{"source": "patent US20240174608A1", "about": "“COMPOUNDS FOR BRAIN IMAGING” (The General Hospital Corporation, priority 2021, published 2024)", "key": {"[1]": {"test_system": "histone deacetylases (HDACs)", "conditions": "at 100 μM; cited from earlier work"}, "[2]": {"test_system": "NAD glycohydrolase (NADase)", "conditions": "at 100 μM; cited from earlier work"}, "SIRT1 [3]": {"test_system": "SIRT1", "experiment": "NHP PET/MR brain imaging", "conditions": "baboon", "protocol": "(§2) Atropine 0.05 mg/kg was used intramuscularly to prevent excessive secretion (15 or 30 min of ketamine and xylazine). Anesthesia was induced with intramuscular xylazine (0.5-2.0 mg/kg) and ketamine (10 mg/kg). […] PET/MR images were acquired in a Biograph mMR scanner (Siemens Healthcare, Erlangen, Germany), and PET compatible 8-channel coil arrays for NHP brain imaging with a PET resolution of ˜5 mm at isocenter. Dynamic PET image acquisition was initiated followed by administration of [^11C]8 in a homogeneous solution of 10% ethanol and 90% isotonic saline. A high-resolution structural MRI using [sequence] sequence was acquired about 30 min post-radiotracer administration for anatomical co-registration. Dynamic PET data were acquired and stored in list mode. After corrected for attenuation, scatter, and decay, the PET images were reconstructed using a 3D-OSEM method. […] Volumes of interests were placed referencing the MRI template. Time-activity curves were exported in terms of decay corrected activity at specified time points with gradually increasing intervals. The time-activity curves were expressed as SUV."}, "[4]": {"experiment": "NHP arterial plasma analysis", "conditions": "baboon", "protocol": "as §2"}, "SIRT1 [5]": {"target": "T1, SIRT1 (Mus musculus, UniProt Q923E4)", "T1 sequence (Q923E4 1-737)": "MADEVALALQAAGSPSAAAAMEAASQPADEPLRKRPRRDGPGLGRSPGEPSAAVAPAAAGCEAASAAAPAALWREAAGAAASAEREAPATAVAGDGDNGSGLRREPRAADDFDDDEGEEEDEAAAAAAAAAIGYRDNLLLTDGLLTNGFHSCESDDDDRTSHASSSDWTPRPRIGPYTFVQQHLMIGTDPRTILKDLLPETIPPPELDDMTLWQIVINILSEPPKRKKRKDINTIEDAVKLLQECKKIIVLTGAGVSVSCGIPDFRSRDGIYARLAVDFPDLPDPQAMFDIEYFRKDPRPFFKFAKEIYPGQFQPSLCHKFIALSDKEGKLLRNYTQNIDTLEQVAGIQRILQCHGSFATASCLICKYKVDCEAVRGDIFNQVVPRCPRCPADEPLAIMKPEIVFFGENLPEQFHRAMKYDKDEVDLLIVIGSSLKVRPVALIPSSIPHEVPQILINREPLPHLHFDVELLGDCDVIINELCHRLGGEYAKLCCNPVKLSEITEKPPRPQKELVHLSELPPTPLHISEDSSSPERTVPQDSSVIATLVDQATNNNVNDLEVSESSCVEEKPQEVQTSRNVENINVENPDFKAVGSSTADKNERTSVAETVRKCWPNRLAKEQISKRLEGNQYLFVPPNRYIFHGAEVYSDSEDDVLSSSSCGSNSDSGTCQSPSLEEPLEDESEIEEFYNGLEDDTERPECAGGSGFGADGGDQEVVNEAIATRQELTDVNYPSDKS", "experiment": "PET/CT imaging in 5×FAD transgenic mice (AD model)", "type": "in vivo", "design": "from tissue; host or cells: brain of living 5×FAD transgenic mice", "conditions": "at 3 min", "text": "C57BL/6 mice were used for baseline and blocking studies (25-30 g, male; n=6 for baseline, n=5 for blocking with the pre-treatment of compound 8, and n=6 for blocking with the pre-treatment of Ex-527), and B6SJL wild-type and 5×FAD transgenic mice (20-25 g, male; n=4 for wild-type mice and n=4 for 5×FAD transgenic mice) were included to evaluate the [^11C]8 in a model of AD. All animals were anesthetized with inhalational isoflurane at 3% in a carrier of 2 L/min medical oxygen, and maintained at 2% isoflurane for the duration of the scan. The mice were fixed on the bed of a Triumph Trimodality PET/CT scanner (Gamma Medica, Northridge, CA) in the prone position, and injected with [^11C]8 (150-200 μL, ˜200 μCi) via a lateral tail vein catheterization at the start of PET acquisition. For blocking studies, compound 8 (5 mg/kg, iv) or Ex-527 (5 mg/kg, iv) was injected at 10 min prior to [^11C]8 injection. Dynamic PET acquisition lasted for 60 min and was followed by CT for anatomic coregistration. PET data were reconstructed using a 3D-MLEM method resulting in a full width at half-maximum resolution of 1 mm. Reconstructed images were exported from the scanner in DICOM format along with an anatomic CT. […] The time-activity curves were expressed as the percentage of injected dose per gram (% ID/g)."}, "SIRT1 [6]": {"target": "T1, SIRT1", "experiment": "Rodent PET/CT baseline imaging and whole body biodistribution", "type": "in vivo", "design": "from tissue; host or cells: brain and other organs of living C57BL/6 mice", "conditions": "C57BL/6 mice", "text": "(§1) C57BL/6 mice were used for baseline and blocking studies (25-30 g, male; n=6 for baseline, n=5 for blocking with the pre-treatment of compound 8, and n=6 for blocking with the pre-treatment of Ex-527), and B6SJL wild-type and 5×FAD transgenic mice (20-25 g, male; n=4 for wild-type mice and n=4 for 5×FAD transgenic mice) were included to evaluate the [^11C]8 in a model of AD. All animals were anesthetized with inhalational isoflurane at 3% in a carrier of 2 L/min medical oxygen, and maintained at 2% isoflurane for the duration of the scan. The mice were fixed on the bed of a Triumph Trimodality PET/CT scanner (Gamma Medica, Northridge, CA) in the prone position, and injected with [^11C]8 (150-200 μL, ˜200 μCi) via a lateral tail vein catheterization at the start of PET acquisition. For blocking studies, compound 8 (5 mg/kg, iv) or Ex-527 (5 mg/kg, iv) was injected at 10 min prior to [^11C]8 injection. Dynamic PET acquisition lasted for 60 min and was followed by CT for anatomic coregistration. PET data were reconstructed using a 3D-MLEM method resulting in a full width at half-maximum resolution of 1 mm. Reconstructed images were exported from the scanner in DICOM format along with an anatomic CT. […] Volumes of interests, including the whole brain, striatum, cortex, thalamus, midbrain, cerebellum and brain stem were placed referencing the MRI template software. […] The time-activity curves were expressed as the percentage of injected dose per gram (% ID/g)."}, "SIRT1 [7]": {"target": "T1, SIRT1", "experiment": "Rodent PET/CT blocking studies (in vivo specificity)", "design": "from tissue; host or cells: brain and other organs of living C57BL/6 mice; species or system C57BL/6 mice", "conditions": "for specific binding in brain: at 60 min", "text": "as §1"}, "[8]": {"conditions": "baseline whole body biodistribution"}}, "data": [{"smiles": "NC(=O)C1CCCc2c1[nH]c1ccc(Cl)cc21", "note": "(centres unmarked) [Ex-527]", "values": [{"measurement": "inhibitory effect on class VII histone deacetylases (HDACs)", "setting": "[1]", "result": "no inhibitory effect"}, {"measurement": "inhibitory effect on NAD glycohydrolase (NADase)", "setting": "[2]", "result": "no inhibitory effect"}]}, {"smiles": "[11CH3]c1ccc2[nH]c3c(c2c1)CCCC3C(N)=O", "note": "(centres unmarked) [[^11C]8, 6-[^11C]methyl-2,3,4,9-tetrahydro-1H-carbazole-1-carboxamide]", "values": [{"measurement": "uptake in midbrain", "setting": "SIRT1 [3]", "result": 4.1, "unit": "SUV"}, {"measurement": "uptake in thalamus", "setting": "SIRT1 [3]", "result": 3.6, "unit": "SUV"}, {"measurement": "peak whole brain uptake", "setting": "SIRT1 [3]; intravenous", "result": "greater than 2.9 SUV"}, {"measurement": "time to peak concentration in whole brain", "setting": "SIRT1 [3]; intravenous", "result": "approximately 4 min"}, {"measurement": "arterial plasma radioactivity remaining (of the total radioactivity)", "setting": "[4]; after 10 min", "result": "less than 10%"}, {"measurement": "parent compound in plasma (stability in plasma over time)", "setting": "[4]; at 30 min", "result": "more than 30%"}, {"measurement": "brain uptake plateau", "setting": "SIRT1 [5]", "result": 6.3, "unit": "% ID/g"}, {"measurement": "radioactivity in liver and kidney", "setting": "SIRT1 [6]; [8]", "result": "> 10", "unit": "% ID/g"}, {"measurement": "uptake in blood", "setting": "SIRT1 [6]; [8]", "result": "relatively low uptake"}, {"measurement": "BBB penetration", "setting": "SIRT1 [6]; baseline", "result": "penetrated the BBB"}, {"measurement": "time to reach plateau of brain time course", "setting": "SIRT1 [6]; baseline", "result": "around 5 min"}, {"measurement": "maximum radioactivity accumulation in the whole brain", "setting": "SIRT1 [6]; baseline, iv tail vein", "result": 7.5, "unit": "% ID/g"}, {"measurement": "washout ratio % ID/g 5 min / % ID/g 60 min", "setting": "SIRT1 [6]; baseline, brain", "result": 1.01}, {"measurement": "brain uptake plateau", "setting": "SIRT1 [7]; at 5 min, pre-treatment with compound 8 (5 mg/kg, iv)", "result": 6.0, "unit": "% ID/g"}, {"measurement": "specific binding in brain", "setting": "SIRT1 [7]; blocking by pre-treatment with Ex-527 (5 mg/kg, iv) 10 min prior", "result": 62, "unit": "%"}, {"measurement": "specific binding in brain", "setting": "SIRT1 [7]; self-blocking, pre-treatment with compound 8 (5 mg/kg, iv) 10 min prior", "result": 68, "unit": "%"}, {"measurement": "specific binding in blood, heart and lung", "setting": "SIRT1 [7]; both blocking experiments", "result": "abundant specific binding"}, {"measurement": "specific binding in liver and kidney", "setting": "SIRT1 [7]; both blocking experiments", "result": "No specific binding"}]}]}
